In brackets after ≈: the same amount, converted by molar mass. Activity calls are given as the source filed them. No cut-off for these calls is given here.
Columns and labels:
[1] = system: Staphylococcus epidermidis; test: Induction of pre-existing methicillin-resistant Staphylococcus epidermidis ATCC 35984 biofilm detachment after 24 hrs by crystal violet staining-based assay relative to control; assay type: functional, RP62A; design: concentration or dose not given beside the values
Pseudomonas aeruginosa [2] = test: Inhibition of biofilm formation of Pseudomonas aeruginosa ATCC 27853 after 24 hrs by crystal violet staining-based assay; assay type: functional
[3] = system: Staphylococcus epidermidis; test: Inhibition of biofilm formation of methicillin-resistant Staphylococcus epidermidis ATCC 35984 after 24 hrs by crystal violet staining-based assay relative to control; assay type: functional, RP62A
Pseudomonas aeruginosa [4] = test: Antibacterial activity against Pseudomonas aeruginosa ATCC 27853 after 18 hrs by broth microdilution method; assay type: functional; details: ATCC 27853, 18 h
[5] = system: Staphylococcus epidermidis; test: Antibacterial activity against methicillin-resistant Staphylococcus epidermidis ATCC 35984 after 18 hrs by broth microdilution method; assay type: functional; details: RP62A
[6] = Hemolytic activity in human RBC after 1 hr; assay type: ADME, cell-based, Erythrocyte; details: red blood cells (RBC)
Pseudomonas aeruginosa [7] = test: Bactericidal activity against Pseudomonas aeruginosa ATCC 27853 assessed as decrease in log10CFU/ml at 12.5 to 50 ug/ml incubated for 6 hrs followed by plating measured after 24 hrs relative to control; assay type: functional
[8] = system: Staphylococcus epidermidis; test: Bactericidal activity against methicillin-resistant Staphylococcus epidermidis ATCC 35984 assessed as decrease in log10CFU/ml at 12.5 to 50 ug/ml incubated for 6 hrs followed by plating measured after 24 hrs relative to control; assay type: functional; details: for Activity: RP62A
Pseudomonas aeruginosa [9] = test: Induction of pre-existing Pseudomonas aeruginosa ATCC 27853 biofilm detachment after 24 hrs by crystal violet staining-based assay relative to control; assay type: functional; design: concentration or dose not given beside the values
Pseudomonas aeruginosa [10] = test: Inhibition of biofilm formation of Pseudomonas aeruginosa ATCC 27853 at 6.25 to 12.56 after 24 hrs by crystal violet staining-based assay relative to control; assay type: functional
[11] = system: Staphylococcus epidermidis; test: Inhibition of biofilm formation of methicillin-resistant Staphylococcus epidermidis ATCC 35984 at 6.25 to 12.56 after 24 hrs by crystal violet staining-based assay relative to control; assay type: functional, RP62A
Pseudomonas aeruginosa [12] = test: microbe, parasite or virus in culture; details: 5761
Description: Antibacterial activity against Pseudomonas aeruginosa 5761 by macrobroth dilution method

Pseudomonas aeruginosa [13] = test: microbe, parasite or virus in culture; details: 11683
Description: Antibacterial activity against Pseudomonas aeruginosa 11683 by macrobroth dilution method

Pseudomonas aeruginosa [14] = test: microbe, parasite or virus in culture; details: 8545
Description: Antibacterial activity against Pseudomonas aeruginosa 8545 by macrobroth dilution method

[15] = system: Staphylococcus epidermidis; test: microbe, parasite or virus in culture; details: RP62A
Description: Antibacterial activity against oxacillin-susceptible Staphylococcus epidermidis ATCC 35984

[16] = system: Staphylococcus epidermidis; test: microbe, parasite or virus in culture; details: RP62A; remark: listed apart in the source
Description: Antibacterial activity against oxacillin-resistant Staphylococcus epidermidis ATCC 35984

| SMILES | Activity [1] [%] | inhibition (INH) (Pseudomonas aeruginosa [2]) [%] | inhibition (INH) [3] [%] | MIC (Pseudomonas aeruginosa [4]) [µM] | MIC [5] [µM] | HC50 at 1 h [6] [µM] | Activity (Pseudomonas aeruginosa [7]) | Activity [8] | Activity (Pseudomonas aeruginosa [9]) [%] | deltalog10CFU (Pseudomonas aeruginosa [7]) | deltalog10CFU [8] | inhibition (INH) (Pseudomonas aeruginosa [10]) [%] | inhibition (INH) [11] [%] | inhibition (Pseudomonas aeruginosa [2]) | inhibition ([3]; RP62A) | MIC (Pseudomonas aeruginosa [12]) [µg/mL] | MIC (Pseudomonas aeruginosa [13]) [µg/mL] | MIC (Pseudomonas aeruginosa [14]) [µg/mL] | MIC [15] [µg/mL] | MIC [16] [µg/mL] |
| --- | --- | --- | --- | --- | --- | --- | --- | --- | --- | --- | --- | --- | --- | --- | --- | --- | --- | --- | --- | --- |
| CCCCCCCCCCCCCCCC(=O)N(CC(N)=O)C[C@H](CCCCN)NC(=O)CN1C[C@H](Cc2ccccc2)NC(=O)CN(C(=O)CCc2ccccc2)C[C@H](CCCCN)NC(=O)CN(C(=O)CCc2ccccc2)C[C@H](CCCCN)NC(=O)CN(C(=O)CCc2ccccc2)C[C@H](CCCCN)NC(=O)CN(C(=O)CCc2ccccc2)C[C@H](CCCCN)NC(=O)CCC1=O | 10 | 60 | 40 | 13 (≈ 24.9 µg/mL) | 13 (≈ 24.9 µg/mL) | 130 | Active | Active | 50 |  |  |  |  |  |  |  |  |  |  |  |
| CCCCCCCCCCCCCCCC(=O)N(CC(N)=O)C[C@H](CCCCN)NC(=O)CN1C[C@H](Cc2ccccc2)NC(=O)CN(C(=O)CCc2ccccc2)C[C@H](CCCCN)NC(=O)CN(C(=O)CCCN)C[C@H](Cc2ccccc2)NC(=O)CN(C(=O)CCc2ccccc2)C[C@H](CCCCN)NC(=O)CCC1=O | 10 | 60 | 40 | 6 (≈ 9.49 µg/mL) | 3 (≈ 4.74 µg/mL) | 114 | Active | Active | 50 |  |  |  |  |  |  |  |  |  |  |  |
| CCCCCCCCCCCCCCCC(=O)N(CC(N)=O)C[C@H](CCCCN)NC(=O)CN1C[C@H](Cc2ccccc2)NC(=O)CN(C(=O)CCCN)C[C@H](Cc2ccccc2)NC(=O)CN(C(=O)CCCN)C[C@H](Cc2ccccc2)NC(=O)CN(C(=O)CCc2ccccc2)C[C@H](CCCCN)NC(=O)CCC1=O |  |  |  | 6 (≈ 9.32 µg/mL) | 0.6 (≈ 0.932 µg/mL) | 129 |  |  |  |  |  |  |  |  |  |  |  |  |  |  |
| CCCCCCCCCCCCCCCC(=O)N(CC(N)=O)C[C@H](CCCCN)NC(=O)CN1C[C@H](Cc2ccccc2)NC(=O)CN(C(=O)CCCN)C[C@H](Cc2ccccc2)NC(=O)CN(C(=O)CCCN)C[C@H](Cc2ccccc2)NC(=O)CN(C(=O)CCCN)C[C@H](Cc2ccccc2)NC(=O)CCC1=O | 30 |  |  | 3 (≈ 4.58 µg/mL) | 0.6 (≈ 0.915 µg/mL) | 65 |  |  | 50 | 6 | 8 | 80 | 70 |  |  |  |  |  |  |  |
| O=C(O)c1cn(C2CC2)c2cc(N3CCNCC3)c(F)cc2c1=O [CIPROFLOXACIN] | 30 |  |  |  |  |  | Active | Active | 50 |  |  |  |  | Active | Active | 0.09 (≈ 0.272 µM) | 0.09 (≈ 0.272 µM) | 0.09 (≈ 0.272 µM) | 0.12 (≈ 0.362 µM) | 0.12 (≈ 0.362 µM) |
| CCCCCCCCCCCCCCCC(=O)N(CC(N)=O)C[C@H](CCCCN)NC(=O)CN1C[C@H](Cc2ccccc2)NC(=O)CN(C(=O)CCc2ccccc2)C[C@H](CCCCN)NC(=O)CN(C(=O)CCc2ccccc2)C[C@H](CCCCN)NC(=O)CN(C(=O)CCc2ccccc2)C[C@H](CCCCN)NC(=O)CCC1=O | 10 | 60 | 40 | 12 (≈ 19.3 µg/mL) | 1 (≈ 1.61 µg/mL) | 160 |  |  | 60 |  |  |  |  |  |  |  |  |  |  |  |
| CCCCCCCCCCCCCCCC(=O)N(CC(N)=O)C[C@H](CCCCN)NC(=O)CN1C[C@H](Cc2ccccc2)NC(=O)CN(C(=O)CCc2ccccc2)C[C@H](CCCCN)NC(=O)CN(C(=O)CCCN)C[C@H](Cc2ccccc2)NC(=O)CN(C(=O)CCCN)C[C@H](Cc2ccccc2)NC(=O)CN(C(=O)CCc2ccccc2)C[C@H](CCCCN)NC(=O)CCC1=O | 10 | 60 | 40 | 14 (≈ 26 µg/mL) | 3 (≈ 5.57 µg/mL) | 82 |  |  | 50 |  |  |  |  |  |  |  |  |  |  |  |

From ChEMBL document CHEMBL3425490, “Activity of lipo-cyclic γ-AApeptides against biofilms of Staphylococcus epidermidis and Pseudomonas aeruginosa” (Bioorg Med Chem Lett, 2015)
